For the assay, the target named is T1, human chemokine receptor 2 isoform B (Homo sapiens, UniProt P41597).
T1 construct: host or cells: CHOK1-CCR2B-A5 (CHO-K1)
T1 sequence (P41597 1-360 isoform P41597-2): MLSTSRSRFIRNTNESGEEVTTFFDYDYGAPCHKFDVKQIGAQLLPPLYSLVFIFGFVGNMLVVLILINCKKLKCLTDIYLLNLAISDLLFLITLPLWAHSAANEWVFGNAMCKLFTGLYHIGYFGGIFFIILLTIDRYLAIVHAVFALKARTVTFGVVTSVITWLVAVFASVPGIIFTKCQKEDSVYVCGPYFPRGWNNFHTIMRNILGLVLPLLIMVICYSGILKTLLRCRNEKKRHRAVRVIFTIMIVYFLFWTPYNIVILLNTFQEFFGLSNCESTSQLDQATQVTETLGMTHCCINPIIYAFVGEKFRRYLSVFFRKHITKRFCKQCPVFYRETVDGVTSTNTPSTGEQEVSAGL
The experiment in a line: Calcium mobilization assay (CHOK1-CCR2B-A5 cells, FLIPR, MCP-1 stimulated). In kind it is cell-based. Particulars: Ca mobilisation assay for CCR2, antagonist activity, 50% inhibition of specific calcium increases after 20 nM MCP-1. The procedure: CHOK1-CCR2B-A5 cells (from Euroscreen) stably overexpressing the human chemokine receptor 2 isoform B were cultured in Nutrient Hams F12 medium supplemented with 5% FBS, 100 U/ml penicillin, 100 μg/ml streptomycin, 400 μg/ml G418 and 5 μg/ml puromycin.
For the assay cells were grown overnight in 384-well black clear flat bottom polystyrene plates (Costar) at 37° C. at 5% CO2. After washing with DMEM, 20 mM Hepes, 2.5 mM probenecid, 0.1% BSA (DMEM assay buffer) cells were loaded with 4 μM Fluo-4 in the same DMEM assay buffer for 2 hours at 30° C. Excess dye was removed and cells were washed with DMEM assay buffer. 384-well compound plates were prepared with DMEM assay buffer/0.5% DMSO with or without various concentrations of test compounds. Usually compounds were tested for agonist and antagonist activity.
Test compounds were added to the assay plate and agonist activity was monitored as fluorescence for 80 seconds with a FLIPR (488 nm excitation; 510-570 nm emission; Molecular Devices). After 20-30 min. of incubation at 30° C., 20 nM MCP-1 (R&D; Roche) was added and fluorescence was monitored again for 80 seconds. Increases in intracellular calcium are reported as maximum fluorescence after agonist exposure minus basal fluorescence before exposure. Antagonist activity is indicated as inhibitor concentration required for 50% inhibition of specific calcium increases.
With `C[C@H]1C(=O)N2[C@H](CCN3CCC4(CC4)[C@H](O)C3)CCC[C@@H]2CN1C(=O)Nc1ccc(Cl)c(Cl)c1` (racemic) [Example 38, (3S,9aR)-6-[2-((S)-4-Hydroxy-6-aza-spiro[2.5]oct-6-yl)-ethyl]-3-methyl-4-oxo-octahydro-pyrido[1,2-a]pyrazine-2-carboxylic acid (3,4-dichloro-phenyl)-amide], the IC50 was found to be 8.8 nM.
For `C[C@H]1C(=O)N2[C@@H](CCN3CCC4(CC4)[C@H](O)C3)CO[C@H]2CN1C(=O)Nc1ccc(Cl)c(Cl)c1` [Example 1, (3S,6S,8aS)-3-[2-((S)-4-Hydroxy-6-aza-spiro[2.5]oct-6-yl)-ethyl]-6-methyl-5-oxo-hexahydro-oxazolo[3,2-a]pyrazine-7-carboxylic acid (3,4-dichloro-phenyl)-amide], the IC50 came to 5.8 nM.
Under `C[C@H]1C(=O)N2[C@@H](CCN3CCC4(CC4)[C@H](O)C3)CO[C@@H]2CN1C(=O)Nc1ccc(Cl)c(Cl)c1` [Example 2, (3S,6S,8aR)-3-[2-((S)-4-hydroxy-6-aza-spiro[2.5]oct-6-yl)-ethyl]-6-methyl-5-oxo-hexahydro-oxazolo[3,2-a]pyrazine-7-carboxylic acid (3,4-dichloro-phenyl)-amide] stands 2.2 nM; under `C[C@H]1C(=O)N2C(CN1C(=O)Nc1cccc(Cl)c1)OC[C@@H]2CCN1CCC2(CC2)[C@H](O)C1` (stereo partly drawn) [Example 3, (3S,6S)-3-[2-((S)-4-Hydroxy-6-aza-spiro[2.5]oct-6-yl)-ethyl]-6-methyl-5-oxo-hexahydro-oxazolo[3,2-a]pyrazine-7-carboxylic acid (3-chloro-phenyl)-amide], 60.4 nM; under `C[C@H]1C(=O)N2C(CN1C(=O)Nc1ccc(F)c(Cl)c1)OC[C@@H]2CCN1CCC2(CC2)[C@H](O)C1` (stereo partly drawn) [Example 4, (3S,6S)-3-[2-((S)-4-Hydroxy-6-aza-spiro[2.5]oct-6-yl)-ethyl]-6-methyl-5-oxo-hexahydro-oxazolo[3,2-a]pyrazine-7-carboxylic acid (3-chloro-4-fluoro-phenyl)-amide], 16 nM.
Consider `C[C@H]1C(=O)N2C(CN1C(=O)Nc1cccc(C(F)(F)F)c1)OC[C@@H]2CCN1CCC2(CC2)[C@H](O)C1` (stereo partly drawn) [Example 5, (3S,6S)-3-[2-((S)-4-Hydroxy-6-aza-spiro[2.5]oct-6-yl)-ethyl]-6-methyl-5-oxo-hexahydro-oxazolo[3,2-a]pyrazine-7-carboxylic acid (3-trifluoromethyl-phenyl)-amide], for which the 50% inhibitory concentration (IC50) was found to be 67.9 nM.
With `C[C@H]1C(=O)N2[C@@H](CCN3CCC4(CC4)[C@H](O)C3)CO[C@H]2CN1C(=O)Nc1ccc(F)c(Cl)c1` [Example 6, (3S,6S,8aS)-3-[2-((S)-4-Hydroxy-6-aza-spiro[2.5]oct-6-yl)-ethyl]-6-methyl-5-oxo-hexahydro-oxazolo[3,2-a]pyrazine-7-carboxylic acid (3-chloro-4-fluoro-phenyl)-amide], the IC50 came out at 72 nM.
With `C[C@H]1C(=O)N2[C@@H](CCN3CCC4(CC4)[C@H](O)C3)CO[C@@H]2CN1C(=O)Nc1ccc(F)c(Cl)c1` [Example 7, (3S,6S,8aR)-3-[2-((S)-4-hydroxy-6-aza-spiro[2.5]oct-6-yl)-ethyl]-6-methyl-5-oxo-hexahydro-oxazolo[3,2-a]pyrazine-7-carboxylic acid (3-chloro-4-fluoro-phenyl)-amide], the half-inhibitory concentration (IC50) was found to be 25 nM.
As to `C[C@H]1C(=O)N2[C@@H](CCN3CCC4(CC4)[C@H](O)C3)CO[C@H]2CN1C(=O)Nc1cccc(C(F)(F)F)c1` [Example 8, (3S,6S,8aS)-3-[2-((S)-4-Hydroxy-6-aza-spiro[2.5]oct-6-yl)-ethyl]-6-methyl-5-oxo-hexahydro-oxazolo[3,2-a]pyrazine-7-carboxylic acid (3-trifluoromethyl-phenyl)-amide], the IC50 amounted to 146 nM.
Consider `C[C@H]1C(=O)N2[C@@H](CCN3CCC4(CC4)[C@H](O)C3)CO[C@@H]2CN1C(=O)Nc1cccc(C(F)(F)F)c1` [Example 9, (3S,6S,8aR)-3-[2-((S)-4-hydroxy-6-aza-spiro[2.5]oct-6-yl)-ethyl]-6-methyl-5-oxo-hexahydro-oxazolo[3,2-a]pyrazine-7-carboxylic acid (3-trifluoromethyl-phenyl)-amide], for which the IC50 turned out to be 68.9 nM.
As for `C[C@H]1C(=O)N2[C@@H](CCCN3CCC4(CC4)[C@H](O)C3)COC2(C)CN1C(=O)Nc1ccc(Cl)c(Cl)c1` (stereo partly drawn) [Example 12, (3S,6S)-3-[3-((S)-4-Hydroxy-6-aza-spiro[2.5]oct-6-yl)-propyl]-6,8a-dimethyl-5-oxo-hexahydro-oxazolo[3,2-a]pyrazine-7-carboxylic acid (3,4-dichloro-phenyl)-amide], the figure is 12 nM; as for `C[C@H]1C(=O)N2[C@@H](CCCN3CCC4(CC4)[C@H](O)C3)COC2(C)CN1C(=O)Nc1ccc(C(F)(F)F)c(Cl)c1` (stereo partly drawn) [Example 13, (3S,6S)-3-[3-((S)-4-Hydroxy-6-aza-spiro[2.5]oct-6-yl)-propyl]-6,8a-dimethyl-5-oxo-hexahydro-oxazolo[3,2-a]pyrazine-7-carboxylic acid (3-chloro-4-trifluoromethyl-phenyl)-amide], 12.7 nM; as for `C[C@H]1C(=O)N2[C@@H](CCN3CCC4(CC4)[C@H](O)C3)CO[C@]2(C)CN1C(=O)Nc1ccc(Cl)c(Cl)c1` [Example 14, (3S,6S,8aR)-3-[2-((S)-4-Hydroxy-6-aza-spiro[2.5]oct-6-yl)-ethyl]-6,8a-dimethyl-5-oxo-hexahydro-oxazolo[3,2-a]pyrazine-7-carboxylic acid (3,4-dichloro-phenyl)-amide], 11.1 nM.
In the case of `C[C@H]1C(=O)N2C(CN1C(=O)Nc1cccc(Cl)c1)OC[C@@H]2CCCN1CCC2(CC2)[C@H](O)C1` (stereo partly drawn) [Example 15, (3S,6S)-3-[3-((S)-4-Hydroxy-6-aza-spiro[2.5]oct-6-yl)-propyl]-6-methyl-5-oxo-hexahydro-oxazolo[3,2-a]pyrazine-7-carboxylic acid (3-chloro-phenyl)-amide], the IC50 turned out to be 32.8 nM.
Regarding `C[C@H]1C(=O)N2C(CN1C(=O)Nc1ccc(Cl)c(Cl)c1)OC[C@@H]2CCCN1CCC2(CC2)[C@H](O)C1` (stereo partly drawn) [Example 16, (3S,6S)-3-[3-((S)-4-Hydroxy-6-aza-spiro[2.5]oct-6-yl)-propyl]-6-methyl-5-oxo-hexahydro-oxazolo[3,2-a]pyrazine-7-carboxylic acid (3,4-dichloro-phenyl)-amide], the IC50 amounted to 7.4 nM.
On to `C[C@H]1C(=O)N2[C@@H](CCCN3CCC4(CC4)[C@H](O)C3)CO[C@H]2CN1C(=O)Nc1ccc(Cl)c(Cl)c1` [Example 17, (3S,6S,8aS)-3-[3-((S)-4-Hydroxy-6-aza-spiro[2.5]oct-6-yl)-propyl]-6-methyl-5-oxo-hexahydro-oxazolo[3,2-a]pyrazine-7-carboxylic acid (3,4-dichloro-phenyl)-amide], for which the IC50 was determined as 2.9 nM.
As for `C[C@H]1C(=O)N2[C@@H](CCCN3CCC4(CC4)[C@H](O)C3)CO[C@@H]2CN1C(=O)Nc1ccc(Cl)c(Cl)c1` [Example 18, (3S,6S,8aR)-3-[3-((S)-4-hydroxy-6-aza-spiro[2.5]oct-6-yl)-propyl]-6-methyl-5-oxo-hexahydro-oxazolo[3,2-a]pyrazine-7-carboxylic acid (3,4-dichloro-phenyl)-amide], the half-maximal inhibitory concentration (IC50) was determined as 10.2 nM.
As for `C[C@H]1C(=O)N2[C@@H](CCCN3CCC4(CC4)[C@H](O)C3)CO[C@H]2CN1C(=O)Nc1cccc(Cl)c1` [Example 19, (3S,6S,8aS)-3-[3-((S)-4-Hydroxy-6-aza-spiro[2.5]oct-6-yl)-propyl]-6-methyl-5-oxo-hexahydro-oxazolo[3,2-a]pyrazine-7-carboxylic acid (3-chloro-phenyl)-amide], the figure is 33.4 nM; as for `C[C@H]1C(=O)N2[C@@H](CCCN3CCC4(CC4)[C@H](O)C3)CO[C@@H]2CN1C(=O)Nc1cccc(Cl)c1` [Example 20, (3S,6S,8aR)-3-[3-((S)-4-hydroxy-6-aza-spiro[2.5]oct-6-yl)-propyl]-6-methyl-5-oxo-hexahydro-oxazolo[3,2-a]pyrazine-7-carboxylic acid (3-chloro-phenyl)-amide], 177 nM; as for `C[C@H]1C(=O)N2[C@@H](CCCN3CCC4(CC4)[C@H](O)C3)CO[C@@]2(C)CN1C(=O)Nc1ccc(Cl)c(Cl)c1` [Example 21, (3S,6S,8aS)-3-[3-((S)-4-Hydroxy-6-aza-spiro[2.5]oct-6-yl)-propyl]-6,8a-dimethyl-5-oxo-hexahydro-oxazolo[3,2-a]pyrazine-7-carboxylic acid (3,4-dichloro-phenyl)-amide], 3.8 nM.

(Values after patent publication US8471004B2, “Bicyclic compounds” (Hoffman-La Roche Inc., priority 2009, dated 2013).)
